30 molecules from US8299056B2 (Signal Pharmaceuticals, LLC, priority 2008, dated 2012) can be followed below.

The target of the first assay is T1, Syk (Homo sapiens, UniProt P43405).
T1 construct: purchased Carna Biosciences
The assay can be described thus: Syk HTRF assay. The format is biochemical. As to conditions: IC50 activity level, read-out: Activity Level. The procedure: Test compounds were prepared at a concentration of 1.5 mM in DMSO followed by 3-fold dilutions in Greiner […] polypropylene plates. A 1:4 dilution of compounds by 8 μL/well transfer from the polypropylene plates to 24 μL/well Assay Buffer in Costar 3710 384 well black plates was then performed. Kinases (13 μL/well) or Assay Buffer only (background controls; 50 mM HEPES pH 7.6, 1 mM DTT, 10 mM MgCl2, 0.01% Triton X100, 0.01% BSA and 0.1 mM EDTA) were added to Costar 3710 384-well black plates for the HTRF assays (Carna Biosciences) and compound was added from the 1:4 dilution plate. Syk start mix (87.5 μM ATP, 80 nM Substrate Peptide (American Peptide Company 332722) was added and the mixture was incubated at room temperature for 1 hour. Syk Stop Solution (120 mM EDTA in dilution buffer) was then added to the Syk HTRF assay plate and incubated at room temperature on a shaker for 2 minutes. Syk Antibody Mix (4.86 μg/mL DyLight 647 Streptavidin (Pierce 21824); 1 μg/mL Lance Eu-Anti-Phosphotyrosine (PerkinElmer AD0069)) was added to the Syk HTRF assay plate and the mixture was further incubated at room temperature for >4 h. Time resolved fluorescence was read in assay plates on a PerkinElmer EnVision. HTRF assays were performed using 320 nm excitation, 60 μs delay, 665 nm and 615 nm emission. Data was expressed by division of 665 nm by 615 nm emissions.
A general note: TR-FRET usually uses a lanthanide donor and a delayed reading to cut background.
Turning to `NCCOc1cc(Nc2nc3cccc(NC4CCCNC4)n3n2)ccn1` (stereo in doubt) [Example 404, (S)-N^2-(2-(2-aminoethoxy)pyridin-4-yl)-N^5-(piperidin-3-yl)-[1,2,4]triazolo[1,5-a]pyridine-2,5-diamine], the IC50 lay within 0.005 to 250 nM.
On the same count and under the same terms, with `NC(=O)[C@H]1CC[C@H](Oc2cccc3nc(Nc4ccc(C(F)(F)F)cc4)nn23)CC1` (stereo in doubt) [Example 405, trans-4-(2-(4-(trifluoromethyl)phenylamino)-[1,2,4]triazolo[1,5-a]pyridin-5-yloxy)cyclohexanecarboxamide] the figure was 1000 to 10000 nM; with `c1cc(NC2CCCNC2)n2nc(Nc3ccc(N4CCOCC4)nc3)nc2c1` (stereo in doubt) [Example 411, (S)-N^2-(6-morpholinopyridin-3-yl)-N^5-(piperidin-3-yl)-[1,2,4]triazolo[1,5-a]pyridine-2,5-diamine], 0.005 to 250 nM.
Still for that read-out and setting: the figure for `OC[C@H]1CC[C@H](Nc2cccc3nc(Nc4ccc(C(F)(F)F)cc4)nn23)CC1` (stereo in doubt) [Example 414, trans-(4-(2-(4-(trifluoromethyl)phenylamino)-[1,2,4]triazolo[1,5-a]pyridin-5-ylamino)cyclohexyl)methanol] is 500 to 1000 nM; for `O[C@H]1CC[C@@H](Nc2cccc3nc(Nc4ccc(C(F)(F)F)cc4)nn23)C1` (stereo in doubt) [Example 418, (1S,3R)-3-(2-(4-(trifluoromethyl)phenylamino)-[1,2,4]triazolo[1,5-a]pyridin-5-ylamino)cyclopentanol] it is 0.005 to 250 nM.
In the case of `OC1CC[C@H](Nc2cccc3nc(Nc4ccc(C(F)(F)F)cc4)nn23)C1` (stereo in doubt) [Example 419, (1S,3S)-3-(2-(4-(trifluoromethyl)phenylamino)-[1,2,4]triazolo[1,5-a]pyridin-5-ylamino)cyclopentanol], the IC50 fell in the range of 250 to 500 nM.
For `O[C@@H]1CCC(Nc2cccc3nc(Nc4ccc(C(F)(F)F)cc4)nn23)C1` (stereo in doubt) [Example 420, (1R,3R)-3-(2-(4-(trifluoromethyl)phenylamino)-[1,2,4]triazolo[1,5-a]pyridin-5-ylamino)cyclopentanol], the IC50 was in the range of 250 to 500 nM.
`N[C@H]1CC[C@H](Oc2cccc3nc(Nc4ccc(C(F)(F)F)cc4)nn23)CC1` (stereo in doubt) [Example 422, trans-5-(4-aminocyclohexyloxy)-N-(4-(trifluoromethyl)phenyl)-[1,2,4]triazolo[1,5-a]pyridin-2-amine]: the IC50 fell in the range of 0.005 to 250 nM.
Same read-out and setting: with `c1cncc(Nc2nc3cccc(NC4CCCNC4)n3n2)c1` (stereo in doubt) [Example 433, (S)-N^5-(piperidin-3-yl)-N^2-(pyridin-3-yl)-[1,2,4]triazolo[1,5-a]pyridin-2,5-diamine] the figure was 0.005 to 250 nM.
`c1cc(NC2CCCNC2)n2nc(Nc3ccc4c(c3)CNC4)nc2c1` (stereo in doubt) [Example 448, (R)-N^2-(isoindolin-5-yl)-N^5-(piperidin-3-yl)-[1,2,4]triazolo[1,5-a]pyridin-2,5-diamine]: the IC50 was in the range of 1000 to 10000 nM.
On the same count and under the same terms, the figure for `Nc1n[nH]c2cc(Nc3nc4cccc(NC5CCCNC5)n4n3)ccc12` (stereo in doubt) [Example 450, (R)-N^2-(3-amino-1H-indazol-6-yl)-N^5-(piperidin-3-yl)-[1,2,4]triazolo[1,5-a]pyridin-2,5-diamine] is 0.005 to 250 nM; for `CC(CN)Cc1cccc2nc(Nc3ccccc3)nn12` (stereo in doubt) [Example 459, (S)-5-(3-amino-2-methylpropyl)-N-phenyl-[1,2,4]triazolo[1,5-a]pyridin-2-amine] it is 1000 to 10000 nM.
Take `CC(Cc1cccc2nc(Nc3ccccc3)nn12)C(N)=O` (stereo in doubt) [Example 461, (S)-2-methyl-3-(2-(phenylamino)-[1,2,4]triazolo[1,5-a]pyridin-5-yl)propanamide]: the IC50 was in the range of 1000 to 10000 nM.

The assay is the same for the next values; noted with them: activity levels A-D, read-out: Activity Level (IC50 in the Syk HTRF assay).
For the molecule `OC1CCCC[C@H]1Nc1cccc2nc(Nc3ccc(C(F)(F)F)cc3)nn12` (stereo in doubt) [Example 270, (1S,2R)-2-(2-(4-(trifluoromethyl)phenylamino)-[1,2,4]triazolo[1,5-a]pyridin-5-ylamino)cyclohexanol], the IC50 was 1000 to 10000 nM.
On the same count and under the same terms, the figure for `OCC1CCCN1Cc1cccc2nc(Nc3ccc(C(F)(F)F)cc3)nn12` (stereo in doubt) [Example 272, (R)-(1-((2-(4-(trifluoromethyl)phenylamino)-[1,2,4]triazolo[1,5-a]pyridin-5-yl)methyl)pyrrolidin-2-yl)methanol] is 1000 to 10000 nM; for `CC1C(=O)NCCN1Cc1cccc2nc(Nc3ccc(C(F)(F)F)cc3)nn12` (stereo in doubt) [Example 275, (S)-3-methyl-4-((2-(4-(trifluoromethyl)phenylamino)-[1,2,4]triazolo[1,5-a]pyridin-5-yl)methyl)piperazin-2-one] it is 0.005 to 250 nM.
Regarding `CNC(=O)c1ccc(Nc2nc3cccc(OC4CCC(N)CC4)n3n2)cc1` (stereo in doubt) [Example 291, trans-4-(5-(4-aminocyclohexyloxy)-[1,2,4]triazolo[1,5-a]pyridin-2-ylamino)-N-methylbenzamide], the IC50 was 250 to 500 nM.
Consider `OC1CCCN(Cc2cccc3nc(Nc4ccc(C(F)(F)F)cc4)nn23)C1` (stereo in doubt) [Example 299, (R)-1-((2-(4-(trifluoromethyl)phenylamino)-[1,2,4]triazolo[1,5-a]pyridin-5-yl)methyl)piperidin-3-ol], for which the IC50 lay within 1000 to 10000 nM.
Turning to `OCC1CCN(Cc2cccc3nc(Nc4ccc(C(F)(F)F)cc4)nn23)C1` (stereo in doubt) [Example 323, (R)-(1-((2-(4-(trifluoromethyl)phenylamino)-[1,2,4]triazolo[1,5-a]pyridin-5-yl)methyl)pyrrolidin-3-yl)methanol], the IC50 was in the range of 1000 to 10000 nM.
As for `OC1CCN(c2cccc3nc(Nc4ccc(C(F)(F)F)cc4)nn23)C1` (stereo in doubt) [Example 333, (S)-1-(2-(4-(trifluoromethyl)phenylamino)-[1,2,4]triazolo[1,5-a]pyridin-5-yl)pyrrolidin-3-ol], the IC50 lay within 250 to 500 nM.
For `OC1CCN(Cc2cccc3nc(Nc4ccc(C(F)(F)F)cc4)nn23)C1` (stereo in doubt) [Example 335, (R)-1-((2-(4-(trifluoromethyl)phenylamino)-[1,2,4]triazolo[1,5-a]pyridin-5-yl)methyl)pyrrolidin-3-ol], the IC50 was in the range of 1000 to 10000 nM.
On the same count and under the same terms, the figure for `OC[C@H]1CCCC[C@H]1Nc1cccc2nc(Nc3ccc(C(F)(F)F)cc3)nn12` (stereo in doubt) [Example 356, (1S,2R)-(2-(2-(4-(trifluoromethyl)phenylamino)-[1,2,4]triazolo[1,5-a]pyridin-5-ylamino)cyclohexyl)methanol] is 1000 to 10000 nM.
Turning to `FC(F)(F)c1ccc(Nc2nc3cccc(OC4CCCNC4)n3n2)cc1` (stereo in doubt) [Example 361, (R)-5-(piperidin-3-yloxy)-N-(4-(trifluoromethyl)phenyl)-[1,2,4]triazolo[1,5-a]pyridin-2-amine], the IC50 lay within 1000 to 10000 nM.
For the molecule `OC1CCC[C@@H]1Nc1cccc2nc(Nc3ccc(C(F)(F)F)cc3)nn12` (stereo in doubt) [Example 374, (1S,2S)-2-(2-(4-(trifluoromethyl)phenylamino)-[1,2,4]triazolo[1,5-a]pyridin-5-ylamino)cyclopentanol], the IC50 was 0.005 to 250 nM.
Still for that read-out and setting: with `O[C@H]1CCC[C@H]1Nc1cccc2nc(Nc3ccc(C(F)(F)F)cc3)nn12` (stereo in doubt) [Example 376, (1S,2R)-2-(2-(4-(trifluoromethyl)phenylamino)-[1,2,4]triazolo[1,5-a]pyridin-5-ylamino)cyclopentanol] the figure was 1000 to 10000 nM; with `O[C@@H]1CCCC1Nc1cccc2nc(Nc3ccc(C(F)(F)F)cc3)nn12` (stereo in doubt) [Example 377, (1R,2R)-2-(2-(4-(trifluoromethyl)phenylamino)-[1,2,4]triazolo[1,5-a]pyridin-5-ylamino)cyclopentanol], 0.005 to 250 nM.
Take `CNC(=O)c1ccc(Nc2nc3cccc(N[C@H]4CC[C@H](O)CC4)n3n2)cc1` (stereo in doubt) [Example 387, trans-4-(5-(4-hydroxycyclohexylamino)-[1,2,4]triazolo[1,5-a]pyridin-2-ylamino)-N-methylbenzamide]: the IC50 lay within 1000 to 10000 nM.
As for `CNC(=O)c1ccc(Nc2nc3cccc(NC4CCC(N)CC4)n3n2)cc1` (stereo in doubt) [Example 394, trans-4-(5-(4-aminocyclohexylamino)-[1,2,4]triazolo[1,5-a]pyridin-2-ylamino)-N-methylbenzamide], the IC50 was in the range of 250 to 500 nM.
`CC(C)(O)[C@H]1CC[C@H](Nc2cccc3nc(Nc4ccc(C(F)(F)F)cc4)nn23)CC1` (stereo in doubt) [Example 397, trans-2-(4-(2-(4-(trifluoromethyl)phenylamino)-[1,2,4]triazolo[1,5-a]pyridin-5-ylamino)cyclohexyl)propan-2-ol]: the IC50 was in the range of 1000 to 10000 nM.
With `OC1CCC(Cc2cccc3nc(Nc4ccc(C(F)(F)F)cc4)nn23)CC1` (stereo in doubt) [Example 398, trans-4-((2-(4-(trifluoromethyl)phenylamino)-[1,2,4]triazolo[1,5-a]pyridin-5-yl)methyl)cyclohexanol], the IC50 fell in the range of 0.005 to 250 nM.
